Experimental findings from patent US12528777B2, “Quinazolinones derivatives for treatment of non-alcoholic fatty liver disease, preparation and use thereof” (Council of Scientific and Industrial Research, priority 2020, dated 2026) are described below.

SMILES strings stand for the structures. Entries after “also recorded” stand apart in the source; their conditions may differ.

The subject of series [1] is ATGL. Briefly: Immunoprecipitation assay of ATGL ubiquitination in myc-ATGL HepG2 cells. It counts as cell-based. The note with it: 5 μM, 24 hours, MG-132, poly ubiquitin smear. How it is done: To this end, an immunoprecipitation assay was performed wherein HepG2 cells overexpressing myc-ATGL were transfected with HA-Ubiquitin and treated with 5 μM of the compounds 9, 10, 107, 215, 219 and 238. MG-132, a proteasomal inhibitor, was added 4 hours before harvesting the cells. Immune complexes were pulled down with anti-myc antibody and immunoblot was done using anti-HA antibody. The resultant smears on the blot reflect the ubiquitination status of ATGL.
For checking the change in the ubiquitination status of ATGL on compound treatment, Myc-ATGL expressing HepG2 cells (ATGL overexpressing cell line) was transfected with 2 μg of a plasmid harboring the HA tagged ubiquitin gene using Lipofectamine 2000 reagent (Invitrogen) in OptiMEM media (HiMedia). Fresh DMEM complete media was added after 8-10 hours of transfection. After roughly 24 hours of transfection, 5 μM of the compounds 9, 10 and 107 was added and cells were harvested post 24 hours of treatment. 4 hours prior to cell harvesting, 10 μM of proteasomal inhibitor MG132 (Calbiochem, Merck Millipore) was added to the cells. Proteins were isolated from the cells and protein concentration was estimated as described previously. 30 μl of PureProteome Protein A/G Mix Magnetic Beads (Merck Millipore) was taken in a 1.5 ml microcentrifuge tube, placed in a Magna Rack (Merck Millipore) and allowed to adhere to the side of the tube. 200 μg of protein was used for immunoprecipitation reaction in a reaction volume of 1 ml. 2 μl of anti-Myc primary antibody (Cell Signaling Technology) was added and the tube was incubated overnight at 4° C. in a rotary shaker. The next day, the tube was placed back in the Magna Rack and the beads were allowed to attach to the tube. To remove non-specific and unattached reactants, 1×PBS and 0.1% Triton-X was used for washing. 2× loading dye and Lysis Buffer was added and heated at 95° C. for 10 minutes to allow the immune complex to dislodge from the magnetic beads. Western Blot was performed subsequently as described before with anti-HA primary antibody for immunoblotting (Cell Signaling Technology). The activity trends of the synthesized compounds are disclosed in Table-5.

A short description of series [2]: Metabolic stability using Human Liver Microsomes. Particulars: for % QH (Well stirred model): NADPH, 0-60 min. It counts as in vitro ADME. Here is the method: 1 mM stock solution of test compound was prepared in DMSO and diluted with Acetonitrile:Water (1:1) to get a 100 μM working concentration. 100 mL of Milli Q water was added to K2HPO4 (1.398 g) and KH2PO4 (0.27 g) to get final pH 7.4 solution of potassium phosphate buffer. […] The above mixture was pre incubated for 15 minutes at 37° C. After pre incubation, 32.5 μL of the mixture was added to 17.5 μL of buffer, this was incubated for 60 minutes at 37° C. [60 min Without Cofactor (NADPH)]. 16.25 μL of the pre incubated mixture and 8.75 μL of cofactor was added to 150 μL of acetonitrile containing internal standard [0 min Sample]. 62 μL of cofactor was added to remaining pre incubation mixture [Incubation mixture]. 25 μL of incubation mixture at 0, 5, 15, 30, 60 min and 60 min without cofactor were precipitated with 150 μL of acetonitrile containing internal standard, vortexed and centrifuged at 4000 rpm at 4° C. for 20 minutes. 120 μL of supernatant was diluted with 120 μL of water and analyzed by LC-MS/MS [sample preparation].

Series [3] has as its system ATGL. Briefly: qPCR of ATGL mRNA in HepG2 cells. It counts as cell-based. The note with it: 5 μM and 10 μM, 24 hours. Here is the method:
Ubiquitination of ATGL by COP1 is a post translational event, therefore, it is expected that the mRNA level of ATGL will not change compared to control upon treatment with the compound of the present disclosure which inhibit COP1. To establish this, HepG2 cells were treated with 5 μM and 10 μM of the compounds 9, 107, 171, 179 and 73 for 24 hours. RNA was isolated using TRIzol reagent followed by chloroform treatment and precipitation with isopropanol. cDNA was obtained from the isolated RNA and qPCR was carried out using SyBr green reagent. COP1 and ATGL gene expression levels were checked. 18s was used as control. FIG. 8 illustrates that compounds exert no effect on the mRNA levels of ATGL.

Series [4] is described as follows: Lipophilicity assay (octanol/buffer). In kind it is physicochemical. Particulars: for logD: n-octanol / 10 mM sodium phosphate buffer pH 7.4, LC-UV; for Lipophilicity class from Log D: pH 7.4. Here is the method:
1.56 g NaH2PO4·2H2O was dissolved in 0.5 L water in a 1 L beaker. After adjusting pH to 7.4 using NaOH solution, the volume was made up to 1 L. Equal volumes of sodium phosphate buffer (10 mM, pH 7.4) and n-octanol were added to a separation funnel and mixed thoroughly by shaking and inverting the funnel several times. The two layers were allowed to separate for overnight and then dispensed in two separate glass bottles. 10 mM stock solution was prepared in 100% DMSO and stored at 4° C. 495 μL of organic phase (1-octanol) was added to each well of a 2 mL deep well plate, followed by 495 μL of buffer and 10 μL of test compound was added. The plate was incubated for 3 hr at room temperature on a plate shaker at 500 rpm. After incubation, the samples were allowed to equilibrate for 20 min and then centrifuged at 4000 rpm for 30 min for complete phase separation and analysed by LC-UV.
Log D=Log (area of octanol/area of buffer)

On to `COCCn1cnc2ccc(NC(=O)Nc3cccc(C(C)=O)c3)cc2c1=O` [Compound 9, 1-(3-acetylphenyl)-3-(3-(2-methoxyethyl)-4-oxo-3,4-dihydroquinazolin-6-yl)urea], for which the “ATGL ubiquitination in HepG2 cells” value in series [1] was “effective in reducing the ATGL ubiquitination by COP1; also recorded: subtle reduction in the ubiquitination smear”. In series [2], the “Clearance class from % QH” value was “lower clearance” and the “% QH (Well stirred model)” value is 21.26%. Besides, the “ATGL mRNA level” value in series [3] is recorded as “no significant changes”.
For the compound `COCCn1c(C)nc2ccc(NC(=O)Nc3cccc(C(C)=O)c3)cc2c1=O` [Compound 107, 1-(3-acetylphenyl)-3-(3-(2-methoxyethyl)-2-methyl-4-oxo-3,4-dihydroquinazolin-6-yl)urea], the “ATGL ubiquitination in HepG2 cells” value in series [1] is reported as “effective in reducing the ATGL ubiquitination by COP1; also recorded: capability of subtly reducing ubiquitination of ATGL”. For the same compound, the “ATGL mRNA level” value in series [3] is listed as “no significant changes”.
For orientation: logD means the decadic logarithm of the distribution of all forms, ionised or not, between an organic phase and buffer at a given pH. For `CC(=O)c1cccc(NC(=O)Nc2ccc3ncn(CCCN4CCOCC4)c(=O)c3c2)c1` [Compound 139, 1-(3-acetylphenyl)-3-(3-(3-morpholinopropyl)-4-oxo-3,4-dihydroquinazolin-6-yl)urea], in series [2], the “Clearance class from % QH” value is on record as “medium clearance” and the “% QH (Well stirred model)” value is reported as 35.3%. In series [4], the logD was -0.5 and the “Lipophilicity class from Log D” value is reported as “hydrophilic”.
`COCC(C)n1cnc2ccc(NC(=O)Nc3cccc(C(C)=O)c3)cc2c1=O` (stereo not shown) [Compound 179, 1-(3-acetylphenyl)-3-(3-(1-methoxypropan-2-yl)-4-oxo-3,4-dihydroquinazolin-6-yl)urea]: the “ATGL mRNA level” value in series [3] is on record as “no significant changes”. Also, in series [4], the log distribution coefficient (logD) was determined as 1.69 and the “Lipophilicity class from Log D” value is recorded as “ideal lipophilicity”.
On to `COCCn1c(-c2cccnc2)nc2ccc(NC(=O)Nc3cccc(C(C)=O)c3)cc2c1=O` [Compound 215, 1-(3-acetylphenyl)-3-(3-(2-methoxyethyl)-4-oxo-2-(pyridin-3-yl)-3,4-dihydroquinazolin-6-yl)urea], for which the “ATGL ubiquitination in HepG2 cells” value in series [1] was “no such effects; also recorded: no subtle reduction in the ubiquitination smear”. In series [2], the “Clearance class from % QH” value is “lower clearance” and the “% QH (Well stirred model)” value came to 15.5%. In addition, in series [4], the logD was 0.42 and the “Lipophilicity class from Log D” value is given as “hydrophilic”.
Taken in the same sequence, the figures for `COCCn1c(-c2ccncc2)nc2ccc(NC(=O)Nc3cccc(C(C)=O)c3)cc2c1=O` [Compound 219, 1-(3-acetylphenyl)-3-(3-(2-methoxyethyl)-4-oxo-2-(pyridin-4-yl)-3,4-dihydroquinazolin-6-yl)urea] were “no such effects; also recorded: no subtle reduction in the ubiquitination smear”, “lower clearance”, 24.5%, 0.19 and “hydrophilic”.
Taken in the same sequence, the figures for `COCCn1c(CN2CCCCC2)nc2ccc(NC(=O)Nc3cccc(C(C)=O)c3)cc2c1=O` [Compound 238, 1-(3-acetylphenyl)-3-(3-(2-methoxyethyl)-4-oxo-2-(piperidin-1-ylmethyl)-3,4-dihydroquinazolin-6-yl)urea] were “decrease ATGL ubiquitination by COP1; also recorded: decreased”, “higher clearance”, 83.5%, 1.6 and “ideal lipophilicity”.
